Measurements reported in ChEMBL document CHEMBL1275510, “Ceftibuten resistance and treatment failure of Neisseria gonorrhoeae infection” (Antimicrob Agents Chemother, 2008).
In brackets after ≈: the same amount, converted by molar mass.

What was measured:
[1] = tested on: Neisseria gonorrhoeae; assay: Antimicrobial activity against penicillin-,ofloxacin- and tetracyclin-resistant Neisseria gonorrhoeae multiantigen sequence type 835 isolate 1 harboring penA gene by Etest; type: functional
[2] = tested on: Neisseria gonorrhoeae; assay: Antimicrobial activity against penicillin-,ofloxacin- and tetracyclin-resistant Neisseria gonorrhoeae multiantigen sequence type 835 isolate 2 harboring penA gene by Etest; type: functional
[3] = tested on: Neisseria gonorrhoeae; assay: Antimicrobial activity against penicillin-,ofloxacin- and tetracyclin-resistant Neisseria gonorrhoeae multiantigen sequence type 835 isolate 3 harboring penA gene by Etest; type: functional
[4] = tested on: Neisseria gonorrhoeae; assay: Antimicrobial activity against penicillin-,ofloxacin- and tetracyclin-resistant Neisseria gonorrhoeae multiantigen sequence type 835 isolate 4 harboring penA gene by Etest; type: functional
[5] = tested on: Neisseria gonorrhoeae; assay: Antimicrobial activity against penicillin-,ofloxacin- and tetracyclin-resistant Neisseria gonorrhoeae multiantigen sequence type 835 isolate 5 harboring penA gene by Etest; type: functional
[6] = tested on: Neisseria gonorrhoeae; assay: Antimicrobial activity against penicillin-,ofloxacin- and tetracyclin-resistant Neisseria gonorrhoeae multiantigen sequence type 835 isolate 6 harboring penA gene by Etest; type: functional
[7] = tested on: Neisseria gonorrhoeae; assay: Antimicrobial activity against penicillin-,ofloxacin- and tetracyclin-resistant Neisseria gonorrhoeae multiantigen sequence type 835 isolate 7 harboring penA gene by Etest; type: functional
[8] = tested on: Neisseria gonorrhoeae; assay: Antimicrobial activity against penicillin-,ofloxacin- and tetracyclin-resistant Neisseria gonorrhoeae multiantigen sequence type 835 isolate 8 harboring penA gene by Etest; type: functional
[9] = tested on: Neisseria gonorrhoeae; assay: Antimicrobial activity against penicillin-,ofloxacin- and tetracyclin-resistant Neisseria gonorrhoeae multiantigen sequence type 835 isolate 9 harboring penA gene by Etest; type: functional
[10] = tested on: Neisseria gonorrhoeae; assay: Antimicrobial activity against penicillin-,ofloxacin- and tetracyclin-resistant Neisseria gonorrhoeae multiantigen sequence type 835 isolate 10 harboring penA gene by Etest; type: functional
[11] = tested on: Neisseria gonorrhoeae; assay: Antimicrobial activity against penicillin-,ofloxacin- and tetracyclin-resistant Neisseria gonorrhoeae multiantigen sequence type 2469 isolate 11 harboring penA gene by Etest; type: functional
[12] = Oral bioavailability in Neisseria gonorrhoeae infected patient at 400 mg, po; type: ADME, organism-based; details: human, in vivo
[13] = Cmax in Neisseria gonorrhoeae infected patient at 400 mg, po; type: ADME, organism-based; design: dose 400 mg, route oral; details: human, in vivo
[14] = Half life in Neisseria gonorrhoeae infected patient at 400 mg, po; type: ADME, organism-based; details: human, in vivo
[15] = tested on: Serum; assay: Protein binding in Neisseria gonorrhoeae infected patient serum at 400 mg, po; type: ADME, organism-based; details: human, in vivo
[16] = tested on: Neisseria gonorrhoeae; assay: Antimicrobial activity against penicillin-,ofloxacin- and tetracyclin-resistant Neisseria gonorrhoeae multiantigen sequence type 835 isolate 5 harboring penA gene by disk diffusion method; type: functional
[17] = tested on: Neisseria gonorrhoeae; assay: Antimicrobial activity against penicillin-,ofloxacin- and tetracyclin resistant penA-negative Neisseria gonorrhoeae by […]; type: functional
[18] = tested on: Neisseria gonorrhoeae; assay: Antimicrobial activity against penicillin-,ofloxacin- and tetracyclin resistant Neisseria gonorrhoeae by […]; type: functional
[19] = tested on: Neisseria gonorrhoeae; assay: Antimicrobial activity against penicillin-,ofloxacin- and tetracyclin-resistant Neisseria gonorrhoeae multiantigen sequence type 835 isolate 1 harboring penA gene by agar dilution method; type: functional
[20] = tested on: Neisseria gonorrhoeae; assay: Antimicrobial activity against penicillin-,ofloxacin- and tetracyclin-resistant Neisseria gonorrhoeae multiantigen sequence type 835 isolate 2 harboring penA gene by agar dilution method; type: functional
[21] = tested on: Neisseria gonorrhoeae; assay: Antimicrobial activity against penicillin-,ofloxacin- and tetracyclin-resistant Neisseria gonorrhoeae multiantigen sequence type 835 isolate 3 harboring penA gene by agar dilution method; type: functional
[22] = tested on: Neisseria gonorrhoeae; assay: Antimicrobial activity against penicillin-,ofloxacin- and tetracyclin-resistant Neisseria gonorrhoeae multiantigen sequence type 835 isolate 4 harboring penA gene by agar dilution method; type: functional
[23] = tested on: Neisseria gonorrhoeae; assay: Antimicrobial activity against penicillin-,ofloxacin- and tetracyclin-resistant Neisseria gonorrhoeae multiantigen sequence type 835 isolate 5 harboring penA gene by agar dilution method; type: functional
[24] = tested on: Neisseria gonorrhoeae; assay: Antimicrobial activity against penicillin-,ofloxacin- and tetracyclin-resistant Neisseria gonorrhoeae multiantigen sequence type 835 isolate 6 harboring penA gene by agar dilution method; type: functional
[25] = tested on: Neisseria gonorrhoeae; assay: Antimicrobial activity against penicillin-,ofloxacin- and tetracyclin-resistant Neisseria gonorrhoeae multiantigen sequence type 835 isolate 6 harboring penA gene by disk diffusion method; type: functional
[26] = tested on: Neisseria gonorrhoeae; assay: Antimicrobial activity against penicillin-,ofloxacin- and tetracyclin-resistant Neisseria gonorrhoeae multiantigen sequence type 835 isolate 7 harboring penA gene by disk diffusion method; type: functional
[27] = tested on: Neisseria gonorrhoeae; assay: Antimicrobial activity against penicillin-,ofloxacin- and tetracyclin-resistant Neisseria gonorrhoeae multiantigen sequence type 835 isolate 8 harboring penA gene by disk diffusion method; type: functional
[28] = tested on: Neisseria gonorrhoeae; assay: Antimicrobial activity against penicillin-,ofloxacin- and tetracyclin-resistant Neisseria gonorrhoeae multiantigen sequence type 835 isolate 9 harboring penA gene by disk diffusion method; type: functional
[29] = tested on: Neisseria gonorrhoeae; assay: Antimicrobial activity against penicillin-,ofloxacin- and tetracyclin-resistant Neisseria gonorrhoeae multiantigen sequence type 835 isolate 10 harboring penA gene by disk diffusion method; type: functional
[30] = tested on: Neisseria gonorrhoeae; assay: Antimicrobial activity against penicillin-,ofloxacin- and tetracyclin-resistant Neisseria gonorrhoeae multiantigen sequence type 2469 isolate 11 harboring penA gene by disk diffusion method; type: functional
[31] = tested on: Neisseria gonorrhoeae; assay: Antimicrobial activity against penicillin-,ofloxacin- and tetracyclin-resistant Neisseria gonorrhoeae multiantigen sequence type 835 isolate 7 harboring penA gene by agar dilution method; type: functional
[32] = tested on: Neisseria gonorrhoeae; assay: Antimicrobial activity against penicillin-,ofloxacin- and tetracyclin-resistant Neisseria gonorrhoeae multiantigen sequence type 835 isolate 8 harboring penA gene by agar dilution method; type: functional
[33] = tested on: Neisseria gonorrhoeae; assay: Antimicrobial activity against penicillin-,ofloxacin- and tetracyclin-resistant Neisseria gonorrhoeae multiantigen sequence type 835 isolate 9 harboring penA gene by agar dilution method; type: functional
[34] = tested on: Neisseria gonorrhoeae; assay: Antimicrobial activity against penicillin-,ofloxacin- and tetracyclin-resistant Neisseria gonorrhoeae multiantigen sequence type 835 isolate 10 harboring penA gene by agar dilution method; type: functional
[35] = tested on: Neisseria gonorrhoeae; assay: Antimicrobial activity against penicillin-,ofloxacin- and tetracyclin-resistant Neisseria gonorrhoeae multiantigen sequence type 2469 isolate 11 harboring penA gene by agar dilution method; type: functional
[36] = tested on: Neisseria gonorrhoeae; assay: Antimicrobial activity against penicillin-,ofloxacin- and tetracyclin-resistant Neisseria gonorrhoeae multiantigen sequence type 835 isolate 1 harboring penA gene by disk diffusion method; type: functional
[37] = tested on: Neisseria gonorrhoeae; assay: Antimicrobial activity against penicillin-,ofloxacin- and tetracyclin-resistant Neisseria gonorrhoeae multiantigen sequence type 835 isolate 2 harboring penA gene by disk diffusion method; type: functional
[38] = tested on: Neisseria gonorrhoeae; assay: Antimicrobial activity against penicillin-,ofloxacin- and tetracyclin-resistant Neisseria gonorrhoeae multiantigen sequence type 835 isolate 3 harboring penA gene by disk diffusion method; type: functional
[39] = tested on: Neisseria gonorrhoeae; assay: Antimicrobial activity against penicillin-,ofloxacin- and tetracyclin-resistant Neisseria gonorrhoeae multiantigen sequence type 835 isolate 4 harboring penA gene by disk diffusion method; type: functional

## CO/N=C(\C(=O)N[C@@H]1C(=O)N2C(C(=O)O)=C(CSc3nc(=O)c(O)nn3C)CS[C@H]12)c1csc(N)n1 [CEFTRIAXONE]
[1]
  MIC: 0.064 µg/mL (≈ 0.115 µM)
[2]
  MIC: 0.064 µg/mL (≈ 0.115 µM)
[3]
  MIC: 0.064 µg/mL (≈ 0.115 µM)
[4]
  MIC: 0.064 µg/mL (≈ 0.115 µM)
[5]
  MIC: 0.064 µg/mL (≈ 0.115 µM)
[6]
  MIC: 0.064 µg/mL (≈ 0.115 µM)
[7]
  MIC: 0.064 µg/mL (≈ 0.115 µM)
[8]
  MIC: 0.125 µg/mL (≈ 0.225 µM)
[9]
  MIC: 0.064 µg/mL (≈ 0.115 µM)
[10]
  MIC: 0.064 µg/mL (≈ 0.115 µM)
[11]
  MIC: 0.064 µg/mL (≈ 0.115 µM)

## CN[C@@H]1[C@H](O)[C@H](NC)[C@H]2O[C@@]3(O)C(=O)C[C@@H](C)O[C@H]3O[C@@H]2[C@H]1O [SPECTINOMYCIN]
[1]
  MIC: 8 µg/mL (≈ 24.1 µM)
[2]
  MIC: 16 µg/mL (≈ 48.1 µM)
[3]
  MIC: 16 µg/mL (≈ 48.1 µM)
[4]
  MIC: 8 µg/mL (≈ 24.1 µM)
[5]
  MIC: 8 µg/mL (≈ 24.1 µM)
[6]
  MIC: 8 µg/mL (≈ 24.1 µM)
[7]
  MIC: 8 µg/mL (≈ 24.1 µM)
[8]
  MIC: 8 µg/mL (≈ 24.1 µM)
[9]
  MIC: 8 µg/mL (≈ 24.1 µM)
[10]
  MIC: 8 µg/mL (≈ 24.1 µM)
[11]
  MIC: 8 µg/mL (≈ 24.1 µM)

## C=CC1=C(C(=O)O)N2C(=O)[C@@H](NC(=O)/C(=N\OCC(=O)O)c3csc(N)n3)[C@H]2SC1 [CEFIXIME]
[12]
  bioavailability: 50%
[13]
  Cmax: 3000 ng/mL
[14]
  half-life: 3.1 h
[15]
  Activity: 65%
[1]
  MIC: 0.25 µg/mL (≈ 0.551 µM)
[2]
  MIC: 0.25 µg/mL (≈ 0.551 µM)
[3]
  MIC: 0.25 µg/mL (≈ 0.551 µM)
[4]
  MIC: 0.25 µg/mL (≈ 0.551 µM)
[5]
  MIC: 0.25 µg/mL (≈ 0.551 µM)
[6]
  MIC: 0.25 µg/mL (≈ 0.551 µM)
[7]
  MIC: 0.25 µg/mL (≈ 0.551 µM)
[8]
  MIC: 0.25 µg/mL (≈ 0.551 µM)
[9]
  MIC: 0.125 µg/mL (≈ 0.276 µM)
[10]
  MIC: 0.25 µg/mL (≈ 0.551 µM)
[11]
  MIC: 0.125 µg/mL (≈ 0.276 µM)

## Nc1nc(/C(=C/CC(=O)O)C(=O)N[C@@H]2C(=O)N3C(C(=O)O)=CCS[C@H]23)cs1 [CEFTIBUTEN]
[16]
  diameter of the inhibition zone (DIZ): 20 mm
[17]
  MIC: ≤ 1 µg/mL
[18]
  diameter of the inhibition zone (DIZ): >=30 mm
[12]
  bioavailability: 80%
[13]
  Cmax: 15000 ng/mL
[14]
  half-life: 2.4 h
[15]
  Activity: 65%
[19]
  MIC: 8 µg/mL (≈ 19.5 µM)
[20]
  MIC: 8 µg/mL (≈ 19.5 µM)
[21]
  MIC: 8 µg/mL (≈ 19.5 µM)
[22]
  MIC: 8 µg/mL (≈ 19.5 µM)
[23]
  MIC: 8 µg/mL (≈ 19.5 µM)
[24]
  MIC: 8 µg/mL (≈ 19.5 µM)
[25]
  diameter of the inhibition zone (DIZ): 22 mm
[26]
  diameter of the inhibition zone (DIZ): 25 mm
[27]
  diameter of the inhibition zone (DIZ): 21 mm
[28]
  diameter of the inhibition zone (DIZ): 27 mm
[29]
  diameter of the inhibition zone (DIZ): 19 mm
[30]
  diameter of the inhibition zone (DIZ): 23 mm
[31]
  MIC: 8 µg/mL (≈ 19.5 µM)
[32]
  MIC: 8 µg/mL (≈ 19.5 µM)
[33]
  MIC: 8 µg/mL (≈ 19.5 µM)
[34]
  MIC: 8 µg/mL (≈ 19.5 µM)
[35]
  MIC: 8 µg/mL (≈ 19.5 µM)
[36]
  diameter of the inhibition zone (DIZ): 26 mm
[37]
  diameter of the inhibition zone (DIZ): 24 mm
[38]
  diameter of the inhibition zone (DIZ): 25 mm
[39]
  diameter of the inhibition zone (DIZ): 22 mm
